{
  "source": "ChEMBL document CHEMBL4334449",
  "about": "“Jorunnamycin A from Xestospongia sp. Suppresses Epithelial to Mesenchymal Transition and Sensitizes Anoikis in Human Lung Cancer Cells” (J Nat Prod, 2019)",
  "key": {"[1]": {"tested_on": "NCI-H460", "experiment": "Induction of anoikis in human H460 cells under detachment conditions assessed as fold change at 0.5 uM after 24 hrs by Annexin V-FITC/propidium iodide staining-based flow cytometric analysis", "type": "functional"}, "[2]": {"tested_on": "NCI-H23", "experiment": "Down regulation of caveolin-1 human H23 cells harboring with p53 mutant under detachment conditions at 0.05 to 0.5 uM after 12 hrs by Western blot analysis", "type": "functional, cell-based"}, "[3]": {"tested_on": "NCI-H460", "experiment": "Antiproliferative activity against human H460 cells assessed as reduction in cell viability at 0.1 to 0.5 uM after at 72 hrs by crystal violet staining assay", "type": "functional, cell-based"}, "[4]": {"species_on_record": "Homo sapiens", "experiment": "Inhibition of ERK phosphorylation in human H23 cells harboring with p53 mutant under detachment conditions at 0.05 to 0.5 uM after 12 hrs by Western blot analysis", "type": "cell-based"}, "[5]": {"tested_on": "NCI-H460", "experiment": "Induction of anoikis in human H460 cells under detachment conditions at 0.05 to 0.5 uM after 24 hrs by Hoechst 33342/propidium iodide staining based fluorescent microscopic method", "type": "functional, cell-based"}, "[6]": {"tested_on": "NCI-H292", "experiment": "Induction of apoptosis in human NCI-H292 cells under detachment conditions assessed as early apoptotic cells at 0.5 uM after 24 hrs by Annexin V-FITC/propidium iodide staining-based flow cytometric analysis (reference value: 29.96%)", "type": "functional"}, "[7]": {"tested_on": "NCI-H292", "experiment": "Induction of apoptosis in human NCI-H292 cells under detachment conditions assessed as necrotic cells at 0.5 uM after 24 hrs by Annexin V-FITC/propidium iodide staining-based flow cytometric analysis (reference value: 1.28%)", "type": "functional"}, "[8]": {"tested_on": "NCI-H460", "experiment": "Inhibition of epithelial-mesenchymal transition in human H460 cells under detachment conditions assessed as increase in claudin-1 protein level 0.05 to 0.5 uM after 12 hrs by Western blot analysis", "type": "functional, cell-based"}, "[9]": {"molecular_target": "T1, Serine/threonine-protein kinase AKT (Homo sapiens) (UniProt P31751+Q9Y243+P31749)", "T1 sequence (P31749 whole entry, looked up)": "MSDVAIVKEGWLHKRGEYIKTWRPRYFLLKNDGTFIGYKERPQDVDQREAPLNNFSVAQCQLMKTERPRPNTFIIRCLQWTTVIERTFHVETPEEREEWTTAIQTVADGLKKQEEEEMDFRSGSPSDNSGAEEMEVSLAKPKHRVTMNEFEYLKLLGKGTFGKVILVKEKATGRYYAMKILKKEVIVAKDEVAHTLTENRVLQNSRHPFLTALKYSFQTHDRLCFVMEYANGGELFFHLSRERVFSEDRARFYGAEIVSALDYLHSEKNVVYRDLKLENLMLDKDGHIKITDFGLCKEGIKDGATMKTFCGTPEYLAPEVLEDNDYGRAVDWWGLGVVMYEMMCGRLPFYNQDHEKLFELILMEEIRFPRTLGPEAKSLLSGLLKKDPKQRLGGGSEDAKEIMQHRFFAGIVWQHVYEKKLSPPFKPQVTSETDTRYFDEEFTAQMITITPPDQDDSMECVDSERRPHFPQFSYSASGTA", "T1 sequence (P31751 whole entry, looked up)": "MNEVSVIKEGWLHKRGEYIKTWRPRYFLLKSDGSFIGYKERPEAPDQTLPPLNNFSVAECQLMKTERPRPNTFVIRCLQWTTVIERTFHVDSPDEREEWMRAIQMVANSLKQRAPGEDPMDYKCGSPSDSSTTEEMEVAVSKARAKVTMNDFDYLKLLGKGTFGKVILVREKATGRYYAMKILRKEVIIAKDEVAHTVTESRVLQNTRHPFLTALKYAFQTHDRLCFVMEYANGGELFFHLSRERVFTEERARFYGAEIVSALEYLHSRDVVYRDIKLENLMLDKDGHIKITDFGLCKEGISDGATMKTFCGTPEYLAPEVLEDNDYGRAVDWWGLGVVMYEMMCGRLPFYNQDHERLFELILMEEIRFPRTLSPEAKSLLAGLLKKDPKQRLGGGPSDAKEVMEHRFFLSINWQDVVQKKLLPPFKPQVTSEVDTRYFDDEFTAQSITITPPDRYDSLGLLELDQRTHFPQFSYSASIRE", "T1 sequence (Q9Y243 whole entry, looked up)": "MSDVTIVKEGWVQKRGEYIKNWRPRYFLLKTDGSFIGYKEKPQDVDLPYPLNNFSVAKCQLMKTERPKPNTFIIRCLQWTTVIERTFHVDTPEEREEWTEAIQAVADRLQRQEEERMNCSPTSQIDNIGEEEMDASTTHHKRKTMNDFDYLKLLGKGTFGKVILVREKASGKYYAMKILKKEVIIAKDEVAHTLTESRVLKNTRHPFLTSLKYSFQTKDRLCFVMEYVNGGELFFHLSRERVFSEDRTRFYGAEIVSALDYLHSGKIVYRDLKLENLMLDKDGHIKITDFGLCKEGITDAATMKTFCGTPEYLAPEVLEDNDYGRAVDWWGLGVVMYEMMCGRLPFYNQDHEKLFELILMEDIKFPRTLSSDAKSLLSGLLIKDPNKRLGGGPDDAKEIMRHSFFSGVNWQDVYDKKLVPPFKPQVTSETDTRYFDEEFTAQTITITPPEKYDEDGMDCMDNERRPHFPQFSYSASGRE", "experiment": "Inhibition of AKT phosphorylation in human H460 cells under detachment conditions at 0.05 to 0.5 uM after 12 hrs by Western blot analysis", "type": "cell-based"}, "[10]": {"tested_on": "NCI-H23", "experiment": "Antiproliferative activity against human H23 cells under detachment conditions assessed as reduction in cell viability at 0.05 to 0.5 uM up to 24 hrs by XTT assay", "type": "functional, cell-based"}, "[11]": {"tested_on": "NCI-H23", "experiment": "Induction of anoikis in human H23 cells harboring with p53 mutant under detachment conditions assessed as decrease in BCL-2 level at 0.05 to 0.5 uM after 12 hrs by Western blot analysis", "type": "functional, cell-based"}, "[12]": {"tested_on": "NCI-H292", "experiment": "Inhibition of colony formation in human NCI-H292 cells under detachment conditions assessed as reduction in size of colonies at 0.1 to 0.5 uM after 14 days by microscopic method", "type": "functional, cell-based"}, "[13]": {"tested_on": "NCI-H23", "experiment": "Induction of apoptosis in human H23 cells under detachment conditions assessed as necrotic cells at 0.5 uM after 24 hrs by Annexin V-FITC/propidium iodide staining-based flow cytometric analysis (reference value: 0.41%)", "type": "functional"}, "[14]": {"tested_on": "NCI-H23", "experiment": "Induction of anoikis in human H23 cells harboring with p53 mutant under detachment conditions assessed as decrease in MCL-1 level at 0.05 to 0.5 uM after 12 hrs by Western blot analysis", "type": "functional, cell-based"}, "[15]": {"tested_on": "NCI-H460", "experiment": "Induction of apoptosis in human H460 cells under detachment conditions assessed as necrotic cells at 0.5 uM after 24 hrs by Annexin V-FITC/propidium iodide staining-based flow cytometric analysis (reference value: 1.58%)", "type": "functional"}, "[16]": {"tested_on": "NCI-H460", "experiment": "Antiproliferative activity against human H460 cells under detachment conditions assessed as reduction in cell viability at 0.1 to 0.5 uM after 3 hrs by XTT assay", "type": "functional, cell-based"}, "[17]": {"tested_on": "NCI-H460", "experiment": "Induction of apoptosis in human H460 cells under detachment conditions at 0.05 to 0.5 uM after 24 hrs by Hoechst 33342/propidium iodide staining based fluorescent microscopic method", "type": "functional, cell-based"}, "[18]": {"tested_on": "NCI-H23", "experiment": "Antiproliferative activity against human H23 cells assessed as reduction in cell viability at 0.05 to 0.5 uM", "type": "functional, cell-based"}, "[19]": {"tested_on": "NCI-H460", "experiment": "Induction of apoptosis in human H460 cells under detachment conditions assessed as accumulation of necrotic cells at 0.05 to 0.5 uM after 24 hrs by Hoechst 33342/propidium iodide staining based fluorescent microscopic method", "type": "functional, cell-based"}, "[20]": {"tested_on": "NCI-H460", "experiment": "Inhibition of epithelial-mesenchymal transition in human H460 cells under detachment conditions assessed as increase in E-cadherin protein level 0.05 to 0.5 uM after 12 hrs by Western blot analysis", "type": "functional, cell-based"}, "[21]": {"tested_on": "NCI-H460", "experiment": "Induction of apoptosis in human H460 cells under detachment conditions assessed as viable cells at 0.5 uM after 24 hrs by Annexin V-FITC/propidium iodide staining-based flow cytometric analysis (reference value: 60.43%)", "type": "functional"}, "[22]": {"tested_on": "NCI-H460", "experiment": "Induction of apoptosis in human H460 cells under detachment conditions assessed as late apoptotic cells at 0.5 uM after 24 hrs by Annexin V-FITC/propidium iodide staining-based flow cytometric analysis (reference value: 15.44%)", "type": "functional"}, "[23]": {"tested_on": "NCI-H460", "experiment": "Induction of anoikis in human H460 cells under detachment conditions assessed as decrease in MCL-1 level at 0.05 to 0.5 uM after 12 hrs by Western blot analysis", "type": "functional, cell-based"}, "[24]": {"tested_on": "NCI-H292", "experiment": "Inhibition of colony formation in human NCI-H292 cells under detachment conditions assessed as reduction in number of colonies at 0.1 to 0.5 uM after 14 days by microscopic method", "type": "functional, cell-based"}, "[25]": {"tested_on": "NCI-H23", "experiment": "Inhibition of epithelial-mesenchymal transition in human H23 cells harboring with p53 mutant under detachment conditions assessed as increase in claudin-1 protein level 0.05 to 0.5 uM after 12 hrs by Western blot analysis", "type": "functional, cell-based"}, "[26]": {"molecular_target": "T1, Serine/threonine-protein kinase AKT (Homo sapiens)", "experiment": "Inhibition of AKT phosphorylation in human H23 cells harboring with p53 mutant under detachment conditions at 0.05 to 0.5 uM after 12 hrs by Western blot analysis", "type": "cell-based"}, "[27]": {"tested_on": "NCI-H460", "experiment": "Induction of anoikis in human H460 cells […] under detachment conditions assessed as effect on P53 level at 0.05 to 0.5 uM after 12 hrs by Western blot analysis", "type": "functional, cell-based"}, "[28]": {"tested_on": "NCI-H460", "experiment": "Down regulation of caveolin-1 human H460 cells under detachment conditions at 0.05 to 0.5 uM after 12 hrs by Western blot analysis", "type": "functional, cell-based"}, "[29]": {"tested_on": "NCI-H460", "experiment": "Induction of anoikis in human H460 cells under detachment conditions assessed as decrease in BCL-2 level at 0.1 to 0.5 uM after 12 hrs by Western blot analysis", "type": "functional, cell-based"}},
  "note": "Calls of active or inactive are those of the source. The calls are words filed in the database; no cut-off is given here.",
  "data": [
    {"compound": "COC1=C(C)C(=O)C2=C(C1=O)[C@@H]1[C@@H]3CC4=C(C(=O)C(OC)=C(C)C4=O)[C@H](CO)N3[C@@H](C#N)[C@H](C2)N1C", "note": "[JOURNNAMYCIN A]", "values": [
      {"measurement": "Activity", "setting": "[1]", "result": 1.39, "unit": "%"},
      {"measurement": "Activity", "setting": "[2]", "result": "Active"},
      {"measurement": "Activity", "setting": "[3]", "result": "Active"},
      {"measurement": "inhibition", "setting": "[4]", "result": "Active"},
      {"measurement": "Activity", "setting": "[5]", "result": "Active"},
      {"measurement": "Activity", "setting": "[6]", "result": 45.68, "unit": "%"},
      {"measurement": "Activity", "setting": "[7]", "result": 0.4, "unit": "%"},
      {"measurement": "inhibition", "setting": "[8]", "result": "Active"},
      {"measurement": "inhibition", "setting": "[9]", "result": "Active"},
      {"measurement": "Activity", "setting": "[10]", "result": "Active"},
      {"measurement": "Activity", "setting": "[11]", "result": "Active"},
      {"measurement": "inhibition", "setting": "[12]", "result": "Active"},
      {"measurement": "Activity", "setting": "[13]", "result": 0.49, "unit": "%"},
      {"measurement": "Activity", "setting": "[14]", "result": "Active"},
      {"measurement": "Activity", "setting": "[15]", "result": 24.2, "unit": "%"},
      {"measurement": "Activity", "setting": "[16]", "result": "Active"},
      {"measurement": "Activity", "setting": "[17]", "result": "Active"},
      {"measurement": "Activity", "setting": "[18]", "result": "inactive"},
      {"measurement": "Activity", "setting": "[19]", "result": "inactive"},
      {"measurement": "inhibition", "setting": "[20]", "result": "Active"},
      {"measurement": "fold change (FC)", "setting": "[21]", "result": 2},
      {"measurement": "Activity", "setting": "[22]", "result": 48.01, "unit": "%"},
      {"measurement": "Activity", "setting": "[23]", "result": "Active"},
      {"measurement": "inhibition", "setting": "[24]", "result": "Active"},
      {"measurement": "inhibition", "setting": "[25]", "result": "Active"},
      {"measurement": "inhibition", "setting": "[26]", "result": "Active"},
      {"measurement": "Activity", "setting": "[27]", "result": "inactive"},
      {"measurement": "Activity", "setting": "[28]", "result": "Active"},
      {"measurement": "Activity", "setting": "[29]", "result": "Active"}
    ]}
  ]
}
